Measured values from the NIST ThermoML archive (doi:10.1021/je300799f).
± gives the expanded uncertainty stated by the source.

Tests used:
[1] = xn = mol fraction of the nth substance listed; details: 101 kPa, Liquid, Vibrating tube method, x2 = 0
[2] = refractive index (Na D-line) (dimensionless); details: 298.15 K; 101.33 kPa; Liquid; Standard Abbe refractometry
[3] = Liquid; for mass density: 101.3 kPa, Vibrating tube method; for vapor or sublimation pressure: Ebulliometric method (Recirculating still)

CCCCCCCCC [nonane] + CCCC(=O)OC
[1]
Details	mass density [kg/m3]
288.15 K	721.65 ± 0.24
298.15 K	713.85 ± 0.25
308.15 K	705.96 ± 0.25
318.15 K	698.06 ± 0.25
328.15 K	690.17 ± 0.25

CCCCCCCCC [nonane]
Details	refractive index
[2]	1.4032 ± 0.0005

[3]
Details	mass density [kg/m3]	vapor or sublimation pressure [kPa]
288.15 K	721.65 ± 0.24	–
298.15 K	713.85 ± 0.25	–
308.15 K	705.96 ± 0.25	–
318.15 K	698.06 ± 0.25	–
328.15 K	690.17 ± 0.25	–
395.53 K	–	45 ± 0.07
397.25 K	–	47.5 ± 0.07
398.89 K	–	50 ± 0.07
400.5 K	–	52.5 ± 0.07
402.04 K	–	55 ± 0.08
403.51 K	–	57.5 ± 0.08
404.94 K	–	60 ± 0.08
406.33 K	–	62.5 ± 0.08
407.66 K	–	65 ± 0.09
408.95 K	–	67.5 ± 0.09
410.24 K	–	70 ± 0.09
411.45 K	–	72.5 ± 0.09
412.64 K	–	75 ± 0.1
413.81 K	–	77.5 ± 0.1
414.94 K	–	80 ± 0.1
416.07 K	–	82.5 ± 0.1
417.16 K	–	85 ± 0.11
418.22 K	–	87.5 ± 0.11
419.24 K	–	90 ± 0.11
420.25 K	–	92.5 ± 0.11
421.24 K	–	95 ± 0.12
422.22 K	–	97.5 ± 0.12
423.18 K	–	100 ± 0.12
423.87 K	–	101.32 ± 0.12
423.9 K	–	101.32 ± 0.46
425.1 K	–	105 ± 0.13
426.76 K	–	110 ± 0.13
428.48 K	–	115 ± 0.14
430.15 K	–	120 ± 0.14
431.71 K	–	125 ± 0.15
433.28 K	–	130 ± 0.15
434.77 K	–	135 ± 0.16
436.25 K	–	140 ± 0.16
437.64 K	–	145 ± 0.17
439.03 K	–	150 ± 0.17
440.38 K	–	155 ± 0.18
441.68 K	–	160 ± 0.18
442.99 K	–	165 ± 0.19
444.25 K	–	170 ± 0.19
445.46 K	–	175 ± 0.2
446.65 K	–	180 ± 0.2
447.83 K	–	185 ± 0.21
448.99 K	–	190 ± 0.21
450.12 K	–	195 ± 0.22
451.2 K	–	200 ± 0.22
452.29 K	–	205 ± 0.23
453.35 K	–	210 ± 0.23
454.41 K	–	215 ± 0.24
455.44 K	–	220 ± 0.25
456.45 K	–	225 ± 0.25
457.45 K	–	230 ± 0.26
458.43 K	–	235 ± 0.26
459.41 K	–	240 ± 0.27
460.35 K	–	245 ± 0.27
461.28 K	–	250 ± 0.28
462.19 K	–	255 ± 0.28
463.08 K	–	260 ± 0.29
463.95 K	–	265 ± 0.29
464.86 K	–	270 ± 0.3
465.73 K	–	275 ± 0.3
466.59 K	–	280 ± 0.31

CCCCCCCCC [nonane] + CCCC(=O)OCC
[1]
Details	mass density [kg/m3]
288.15 K	721.65 ± 0.24
298.15 K	713.85 ± 0.25
308.15 K	705.96 ± 0.25
318.15 K	698.06 ± 0.25
328.15 K	690.17 ± 0.25

CCCC(=O)OC [methyl butanoate]
Details	refractive index
[2]	1.3851 ± 0.0005

[3]
Details	mass density [kg/m3]	vapor or sublimation pressure [kPa]
288.15 K	903.31 ± 0.23	–
298.15 K	892.31 ± 0.23	–
308.15 K	881.19 ± 0.24	–
318.15 K	870.06 ± 0.24	–
328.15 K	858.8 ± 0.24	–
354.1 K	–	50 ± 0.07
355.47 K	–	52.5 ± 0.08
356.79 K	–	55 ± 0.08
358.1 K	–	57.5 ± 0.08
359.34 K	–	60 ± 0.08
360.56 K	–	62.5 ± 0.09
361.72 K	–	65 ± 0.09
362.84 K	–	67.5 ± 0.09
363.94 K	–	70 ± 0.09
364.99 K	–	72.5 ± 0.1
366.05 K	–	75 ± 0.1
367.04 K	–	77.5 ± 0.1
368.03 K	–	80 ± 0.1
369 K	–	82.5 ± 0.11
370.01 K	–	85 ± 0.11
370.93 K	–	87.5 ± 0.11
371.84 K	–	90 ± 0.11
372.72 K	–	92.5 ± 0.12
373.58 K	–	95 ± 0.12
374.42 K	–	97.5 ± 0.12
375.27 K	–	100 ± 0.12
375.74 K	–	101.32 ± 0.13
376.91 K	–	105 ± 0.13
378.42 K	–	110 ± 0.14
379.91 K	–	115 ± 0.14
381.34 K	–	120 ± 0.15
382.73 K	–	125 ± 0.15
384.07 K	–	130 ± 0.16
385.37 K	–	135 ± 0.16
386.63 K	–	140 ± 0.17
387.87 K	–	145 ± 0.17
389.07 K	–	150 ± 0.18
390.24 K	–	155 ± 0.18
391.38 K	–	160 ± 0.19
392.48 K	–	165 ± 0.19
393.58 K	–	170 ± 0.2
394.64 K	–	175 ± 0.2
395.67 K	–	180 ± 0.21
396.7 K	–	185 ± 0.21
397.68 K	–	190 ± 0.22
398.67 K	–	195 ± 0.23
399.61 K	–	200 ± 0.23
400.54 K	–	205 ± 0.24
401.46 K	–	210 ± 0.24
402.37 K	–	215 ± 0.25
403.25 K	–	220 ± 0.25
404.13 K	–	225 ± 0.26
404.97 K	–	230 ± 0.26
405.81 K	–	235 ± 0.27
406.64 K	–	240 ± 0.27
407.45 K	–	245 ± 0.28
408.26 K	–	250 ± 0.28
409.05 K	–	255 ± 0.29
409.83 K	–	260 ± 0.29
410.58 K	–	265 ± 0.3
411.35 K	–	270 ± 0.3
412.09 K	–	275 ± 0.31
412.83 K	–	280 ± 0.31

CCCCCCC [heptane]
Details	refractive index
[2]	1.3853 ± 0.0005

[3]
Details	mass density [kg/m3]	vapor or sublimation pressure [kPa]
288.15 K	688.16 ± 0.25	–
298.15 K	679.62 ± 0.25	–
308.15 K	670.96 ± 0.25	–
318.15 K	662.33 ± 0.25	–
328.15 K	653.61 ± 0.25	–
346.23 K	–	45 ± 0.07
347.76 K	–	47.5 ± 0.07
349.29 K	–	50 ± 0.07
350.7 K	–	52.5 ± 0.08
352.07 K	–	55 ± 0.08
353.41 K	–	57.5 ± 0.08
354.69 K	–	60 ± 0.08
355.94 K	–	62.5 ± 0.09
357.14 K	–	65 ± 0.09
358.32 K	–	67.5 ± 0.09
359.45 K	–	70 ± 0.09
360.54 K	–	72.5 ± 0.1
361.61 K	–	75 ± 0.1
362.66 K	–	77.5 ± 0.1
363.68 K	–	80 ± 0.1
364.71 K	–	82.5 ± 0.11
365.65 K	–	85 ± 0.11
366.61 K	–	87.5 ± 0.11
367.53 K	–	90 ± 0.11
368.42 K	–	92.5 ± 0.12
369.32 K	–	95 ± 0.12
370.19 K	–	97.5 ± 0.12
371.07 K	–	100 ± 0.12
371.38 K	–	101.32 ± 0.46
371.51 K	–	101.32 ± 0.13
372.72 K	–	105 ± 0.13
374.31 K	–	110 ± 0.13
375.85 K	–	115 ± 0.14
377.34 K	–	120 ± 0.14
378.77 K	–	125 ± 0.15
380.18 K	–	130 ± 0.16
381.52 K	–	135 ± 0.16
382.84 K	–	140 ± 0.17
384.13 K	–	145 ± 0.17
385.36 K	–	150 ± 0.18
386.6 K	–	155 ± 0.18
387.78 K	–	160 ± 0.19
388.94 K	–	165 ± 0.19
390.08 K	–	170 ± 0.2
391.17 K	–	175 ± 0.2
392.25 K	–	180 ± 0.21
393.3 K	–	185 ± 0.21
394.34 K	–	190 ± 0.22
395.37 K	–	195 ± 0.22
396.37 K	–	200 ± 0.23
397.35 K	–	205 ± 0.23
398.29 K	–	210 ± 0.24
399.24 K	–	215 ± 0.24
400.17 K	–	220 ± 0.25
401.07 K	–	225 ± 0.26
401.97 K	–	230 ± 0.26
402.84 K	–	235 ± 0.27
403.72 K	–	240 ± 0.27
404.57 K	–	245 ± 0.28
405.42 K	–	250 ± 0.28
406.25 K	–	255 ± 0.29
407.05 K	–	260 ± 0.29
407.87 K	–	265 ± 0.3
408.65 K	–	270 ± 0.3
409.42 K	–	275 ± 0.31
410.22 K	–	280 ± 0.31

CCCCCCC [heptane] + CCCC(=O)OC
[1]
Details	mass density [kg/m3]
288.15 K	688.16 ± 0.25
298.15 K	679.62 ± 0.25
308.15 K	670.96 ± 0.25
318.15 K	662.33 ± 0.25
328.15 K	653.61 ± 0.25

CCCC(=O)OCC [ethyl butanoate]
Details	refractive index
[2]	1.3898 ± 0.0005

[3]
Details	mass density [kg/m3]	vapor or sublimation pressure [kPa]
288.15 K	884.01 ± 0.23	–
298.15 K	873.5 ± 0.24	–
308.15 K	862.85 ± 0.24	–
318.15 K	852.26 ± 0.24	–
328.15 K	841.55 ± 0.24	–
377.33 K	–	60 ± 0.08
378.63 K	–	62.5 ± 0.09
379.81 K	–	65 ± 0.09
380.99 K	–	67.5 ± 0.09
382.1 K	–	70 ± 0.09
383.23 K	–	72.5 ± 0.1
384.31 K	–	75 ± 0.1
385.34 K	–	77.5 ± 0.1
386.35 K	–	80 ± 0.1
387.34 K	–	82.5 ± 0.11
388.31 K	–	85 ± 0.11
389.25 K	–	87.5 ± 0.11
390.17 K	–	90 ± 0.11
391.06 K	–	92.5 ± 0.12
391.94 K	–	95 ± 0.12
392.81 K	–	97.5 ± 0.12
393.66 K	–	100 ± 0.12
394.26 K	–	101.32 ± 0.12
394.31 K	–	101.32 ± 0.51
395.43 K	–	105 ± 0.13
397.05 K	–	110 ± 0.13
398.57 K	–	115 ± 0.14
400.1 K	–	120 ± 0.14
401.54 K	–	125 ± 0.15
402.99 K	–	130 ± 0.15
404.34 K	–	135 ± 0.16
405.62 K	–	140 ± 0.17
406.96 K	–	145 ± 0.17
408.22 K	–	150 ± 0.18
409.45 K	–	155 ± 0.18
410.61 K	–	160 ± 0.19
411.77 K	–	165 ± 0.19
412.95 K	–	170 ± 0.2
414.05 K	–	175 ± 0.21
415.01 K	–	180 ± 0.21
416.08 K	–	185 ± 0.21
417.14 K	–	190 ± 0.22
418.15 K	–	195 ± 0.22
419.14 K	–	200 ± 0.23
420.12 K	–	205 ± 0.23
421.1 K	–	210 ± 0.24
422.01 K	–	215 ± 0.25
422.94 K	–	220 ± 0.25
423.85 K	–	225 ± 0.25
424.79 K	–	230 ± 0.26
425.67 K	–	235 ± 0.27
426.53 K	–	240 ± 0.27
427.35 K	–	245 ± 0.28
428.2 K	–	250 ± 0.28
429.04 K	–	255 ± 0.29
429.84 K	–	260 ± 0.29
430.65 K	–	265 ± 0.3
431.42 K	–	270 ± 0.3
432.23 K	–	275 ± 0.31
433 K	–	280 ± 0.31

CCCCCCC [heptane] + CCCC(=O)OCC
[1]
Details	mass density [kg/m3]
288.15 K	688.16 ± 0.25
298.15 K	679.62 ± 0.25
308.15 K	670.96 ± 0.25
318.15 K	662.33 ± 0.25
328.15 K	653.61 ± 0.25
